From ChEMBL document CHEMBL5465560, “Selectivity Literature for EUbOPEN Chemogenomic Library” (2024)

What was measured:
[1] = target: T1, Serine/threonine-protein kinase Nek11 (Homo sapiens) (UniProt Q8NG66); assay: Selectivity interaction (KinomeScan (DiscoverX)) EUB0000045b NEK11
T1 sequence (whole entry): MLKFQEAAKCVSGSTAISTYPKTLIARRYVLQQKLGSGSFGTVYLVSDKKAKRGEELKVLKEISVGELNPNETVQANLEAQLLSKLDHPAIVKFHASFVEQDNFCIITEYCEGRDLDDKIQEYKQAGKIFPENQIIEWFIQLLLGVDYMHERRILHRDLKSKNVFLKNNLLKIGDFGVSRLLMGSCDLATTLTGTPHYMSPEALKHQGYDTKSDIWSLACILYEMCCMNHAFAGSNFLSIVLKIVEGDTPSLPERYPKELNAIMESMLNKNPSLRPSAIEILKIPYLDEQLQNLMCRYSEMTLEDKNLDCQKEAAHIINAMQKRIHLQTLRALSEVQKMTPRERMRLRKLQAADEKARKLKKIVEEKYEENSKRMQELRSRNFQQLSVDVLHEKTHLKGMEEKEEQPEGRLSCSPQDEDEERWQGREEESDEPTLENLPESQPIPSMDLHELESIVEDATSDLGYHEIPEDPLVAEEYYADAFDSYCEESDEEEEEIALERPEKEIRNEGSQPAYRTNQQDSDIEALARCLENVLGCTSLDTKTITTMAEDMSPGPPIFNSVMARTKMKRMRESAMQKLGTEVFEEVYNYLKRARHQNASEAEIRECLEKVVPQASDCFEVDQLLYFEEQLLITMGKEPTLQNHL

[2] = target: Mitogen-activated protein kinase kinase kinase 20 (Homo sapiens) (UniProt Q9NYL2); assay: Selectivity interaction (KinomeScan (DiscoverX)) EUB0000666a MAP3K20; conditions: at 10 µM
[3] = target: T2, Mitogen-activated protein kinase kinase kinase 3 (Homo sapiens) (UniProt Q99759); assay: Selectivity interaction (ActivX KiNativ screen (ex vivo kinase selectivity in human PBMCs)) EUB0001619a MAP3K3; format: cell-based; conditions: PBMC, at 1 µM
T2 sequence (whole entry): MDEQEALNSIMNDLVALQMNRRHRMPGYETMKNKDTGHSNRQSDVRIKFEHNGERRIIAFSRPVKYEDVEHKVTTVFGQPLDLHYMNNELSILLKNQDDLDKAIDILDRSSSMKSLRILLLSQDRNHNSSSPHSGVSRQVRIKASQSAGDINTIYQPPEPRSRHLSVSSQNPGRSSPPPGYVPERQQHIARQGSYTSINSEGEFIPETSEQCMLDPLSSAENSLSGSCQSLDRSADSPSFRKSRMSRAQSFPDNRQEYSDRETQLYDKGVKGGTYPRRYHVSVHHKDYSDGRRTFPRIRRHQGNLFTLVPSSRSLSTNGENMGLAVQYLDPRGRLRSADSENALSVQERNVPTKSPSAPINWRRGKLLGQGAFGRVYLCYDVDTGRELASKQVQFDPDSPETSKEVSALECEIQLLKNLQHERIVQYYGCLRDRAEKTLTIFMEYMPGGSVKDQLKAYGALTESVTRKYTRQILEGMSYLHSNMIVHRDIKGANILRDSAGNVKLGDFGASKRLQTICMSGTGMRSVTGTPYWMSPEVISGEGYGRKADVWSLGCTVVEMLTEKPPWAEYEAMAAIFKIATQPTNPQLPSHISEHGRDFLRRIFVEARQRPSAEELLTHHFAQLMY

[4] = target: T3, Mitogen-activated protein kinase kinase kinase kinase 2 (Homo sapiens) (UniProt Q12851); assay: Selectivity interaction (ActivX KiNativ screen (kinase selectivity in THP-1 cell lysates)) EUB0000639a MAP4K2; format: subcellular; conditions: lysate, at 1 µM
T3 sequence (whole entry): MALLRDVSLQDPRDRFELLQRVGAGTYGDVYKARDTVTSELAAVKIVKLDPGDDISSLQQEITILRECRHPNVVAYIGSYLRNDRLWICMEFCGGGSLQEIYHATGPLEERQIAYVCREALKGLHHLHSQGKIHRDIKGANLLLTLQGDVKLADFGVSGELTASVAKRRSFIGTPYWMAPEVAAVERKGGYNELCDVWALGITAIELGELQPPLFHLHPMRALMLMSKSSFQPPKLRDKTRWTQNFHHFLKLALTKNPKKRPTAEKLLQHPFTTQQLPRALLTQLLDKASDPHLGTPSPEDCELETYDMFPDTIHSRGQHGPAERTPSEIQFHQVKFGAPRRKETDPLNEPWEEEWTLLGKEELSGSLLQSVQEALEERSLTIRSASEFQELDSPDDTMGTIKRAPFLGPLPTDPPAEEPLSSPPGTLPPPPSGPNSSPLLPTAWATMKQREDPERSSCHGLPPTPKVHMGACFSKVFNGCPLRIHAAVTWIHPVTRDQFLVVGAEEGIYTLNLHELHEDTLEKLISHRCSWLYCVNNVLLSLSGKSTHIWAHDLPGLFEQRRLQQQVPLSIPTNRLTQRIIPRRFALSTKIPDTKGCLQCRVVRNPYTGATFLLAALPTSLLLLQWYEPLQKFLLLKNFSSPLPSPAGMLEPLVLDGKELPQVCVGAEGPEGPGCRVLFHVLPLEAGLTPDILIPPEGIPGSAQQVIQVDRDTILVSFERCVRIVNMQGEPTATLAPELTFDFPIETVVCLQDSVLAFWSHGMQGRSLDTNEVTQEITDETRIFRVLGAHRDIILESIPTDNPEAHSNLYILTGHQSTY

Sequence of Mitogen-activated protein kinase kinase kinase 20 (Homo sapiens) (Q9NYL2 2-800 limits assumed): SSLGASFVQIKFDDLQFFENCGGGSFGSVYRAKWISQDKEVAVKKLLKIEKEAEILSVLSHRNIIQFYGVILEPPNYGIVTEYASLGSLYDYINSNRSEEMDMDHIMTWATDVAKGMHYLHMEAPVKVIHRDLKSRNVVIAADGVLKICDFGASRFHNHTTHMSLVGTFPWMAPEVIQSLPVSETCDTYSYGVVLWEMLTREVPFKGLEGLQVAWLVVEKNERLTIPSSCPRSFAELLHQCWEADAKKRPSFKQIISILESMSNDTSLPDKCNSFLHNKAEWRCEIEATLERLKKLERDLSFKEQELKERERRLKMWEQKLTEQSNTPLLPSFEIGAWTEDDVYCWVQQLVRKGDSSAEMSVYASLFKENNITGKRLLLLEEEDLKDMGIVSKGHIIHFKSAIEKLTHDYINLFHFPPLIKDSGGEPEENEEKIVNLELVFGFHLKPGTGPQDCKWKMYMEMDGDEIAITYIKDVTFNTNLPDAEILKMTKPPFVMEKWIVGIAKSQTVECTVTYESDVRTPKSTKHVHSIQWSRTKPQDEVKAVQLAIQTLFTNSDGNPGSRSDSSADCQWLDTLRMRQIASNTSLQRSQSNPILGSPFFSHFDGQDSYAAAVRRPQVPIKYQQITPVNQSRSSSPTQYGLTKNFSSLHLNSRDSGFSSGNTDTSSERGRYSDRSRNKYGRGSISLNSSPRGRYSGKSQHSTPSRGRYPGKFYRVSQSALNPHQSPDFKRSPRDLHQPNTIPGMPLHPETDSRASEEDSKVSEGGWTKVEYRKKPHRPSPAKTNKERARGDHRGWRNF

With `C=CC(=O)Nc1cc(-n2c(=O)ccc3cnc4ccc(-c5ccc(NS(C)(=O)=O)cc5)cc4c32)ccc1C` the % of control ([1]; at 1 µM) was 100% and the % of control ([1]; at 10 µM) was 100%.

`O=C(NOC[C@H](O)CO)c1ccc(F)c(F)c1Nc1ccc(I)cc1F` showed a % of control [2] of 88%.

Work on `N#Cc1cccc(-c2c[nH]c3ncnc(N4CCOCC4)c23)c1` yielded a % of inhibition [3] of 7%.

`CC[C@@H]1[C@H](F)C(=O)N[C@@H]1COc1nccc2cc(C(N)=O)c(OC)cc12` [ZIMLOVISERTIB] showed a % of inhibition [4] of -10.5%.
